Results published in ChEMBL document CHEMBL1131134, “A novel class of adenosine A3 receptor ligands. 2. Structure affinity profile of a series of isoquinoline and quinazoline compounds” (J Med Chem, 1998).

Tests used:
[1] = molecular target: T1, Adenosine receptor A1 (Rattus norvegicus) (UniProt P25099); assay: Antagonist activity by displacement of specific [3H]DPCPX binding in rat cortical membrane (Adenosine A1 receptor) at a Conc of […].; format: cell membranes
T1 sequence (whole entry): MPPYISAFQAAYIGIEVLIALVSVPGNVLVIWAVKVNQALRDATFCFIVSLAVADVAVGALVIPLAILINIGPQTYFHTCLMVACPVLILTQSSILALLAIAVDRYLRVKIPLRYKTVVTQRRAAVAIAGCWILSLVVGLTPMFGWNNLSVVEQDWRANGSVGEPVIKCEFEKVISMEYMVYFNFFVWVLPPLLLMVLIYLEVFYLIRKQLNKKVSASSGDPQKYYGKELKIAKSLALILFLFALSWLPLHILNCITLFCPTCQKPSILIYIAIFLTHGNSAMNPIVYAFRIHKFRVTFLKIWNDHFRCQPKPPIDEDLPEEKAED

[2] = molecular target: Adenosine receptor A2a (Rattus norvegicus) (UniProt P30543); assay: Antagonistic activity assayed by displacement of specific [3H]-CGS-21,680 binding in rat striatal membrane (adenosine A2A receptor) at a conc of […].; format: cell membranes; conditions: Striatum
Sequence of Adenosine receptor A2a (Rattus norvegicus) (P30543 whole entry): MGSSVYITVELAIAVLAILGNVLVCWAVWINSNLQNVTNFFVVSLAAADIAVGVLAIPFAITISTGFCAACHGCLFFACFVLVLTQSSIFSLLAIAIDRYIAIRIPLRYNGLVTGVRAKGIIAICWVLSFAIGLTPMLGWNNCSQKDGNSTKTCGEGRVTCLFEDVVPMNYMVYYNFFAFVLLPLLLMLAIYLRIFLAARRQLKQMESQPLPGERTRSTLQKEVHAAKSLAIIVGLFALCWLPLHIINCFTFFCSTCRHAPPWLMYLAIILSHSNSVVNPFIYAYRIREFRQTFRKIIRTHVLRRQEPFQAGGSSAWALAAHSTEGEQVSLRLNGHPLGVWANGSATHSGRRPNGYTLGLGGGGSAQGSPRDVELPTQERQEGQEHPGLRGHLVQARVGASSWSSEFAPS

[3] = Relative binding affinity for adenosine receptors A1 and A3 as ratio of Ki

Row | SMILES | Displacement [1] | Displacement [2] | Ratio [3]
1 | N=C(Nc1nc(-c2ccccn2)cc2ccccc12)c1ccccc1 | – | 4% | –
2 | CC(C)C(=O)Nc1nc(-c2ccccn2)cc2ccccc12 | 38% | 48% | –
3 | Oc1nc(-c2ccccn2)cc2ccccc12 | 21% | – | –
4 | O=C(c1ccccc1)N(C(=O)c1ccccc1)c1nc(-c2ccccn2)cc2ccccc12 | – | 27% | 19
5 | Cc1cccc(C)c1C(=O)Nc1nc(-c2ccccn2)cc2ccccc12 | 2% | 0% | –
6 | O=C(Cc1nc(-c2ccccn2)cc2ccccc12)c1ccccc1 | – | 22% | 0.36
7 | COc1cccc(C(=O)Nc2nc(-c3ccccn3)cc3ccccc23)c1 | 22% | 0% | –
8 | Cc1ccc(C(=O)Nc2nc(-c3ccccn3)cc3ccccc23)cc1C | 16% | 0% | –
9 | O=C(Nc1nc(-c2ccccn2)nc2ccccc12)C(F)(F)F | 8% | 0% | –
10 | Cc1cccc(C(=O)Nc2nc(-c3ccccn3)cc3ccccc23)c1 | 35% | 0% | –
11 | CC(=O)Nc1nc(-c2ccccn2)cc2ccccc12 | 24% | 18% | –
12 | Cc1ccc(C)c(C(=O)Nc2nc(-c3ccccn3)cc3ccccc23)c1 | 29% | 7% | –
13 | Cc1cc(C)cc(C(=O)Nc2nc(-c3ccccn3)cc3ccccc23)c1 | 8% | 0% | –
14 | Cc1ccc(C(=O)Nc2nc(-c3ccccn3)cc3ccccc23)c(C)c1 | 14% | 0% | –

Further lines, results first:

Row | Displacement [1] | Displacement [2] | Ratio [3] | SMILES
15 | 41% | 20% | – | COc1ccc(C(=O)Nc2nc(-c3ccccn3)cc3ccccc23)cc1OC
16 | 42% | 0% | – | O=C(Nc1nc(-c2ccccn2)cc2ccccc12)c1cccc(Cl)c1
17 | 0% | 0% | – | O=C(Nc1nc(-c2ccccn2)cc2ccccc12)c1ccc(Cl)c(Cl)c1
18 | 11% | 0% | – | O=C(Nc1nc(-c2ccccn2)cc2ccccc12)c1ccc(Cl)cc1
19 | 0% | 2% | – | O=C(Nc1nc(-c2ccccn2)nc2ccccc12)c1ccccc1
20 | 38% | 17% | – | N=CNc1nc(-c2ccccn2)nc2ccccc12
21 | 25% | 17% | – | CC(=O)Nc1nc(-c2ccccn2)nc2ccccc12
22 | 14% | 0% | – | COc1ccc(C(=O)Nc2nc(-c3ccccn3)cc3ccccc23)cc1
23 | – | 0% | 16 | O=C(Nc1nc(-c2ccccn2)cc2ccccc12)c1ccccc1
24 | 16% | 10% | – | Oc1nc(-c2ccccn2)nc2ccccc12
25 | 3% | 3% | – | O=C(c1ccccc1)N(C(=O)c1ccccc1)c1nc(-c2ccccn2)nc2ccccc12
26 | 41% | 20% | – | COc1ccc(C(=O)Nc2nc(-c3ccccn3)nc3ccccc23)cc1
27 | – | 42% | – | N=CNc1nc(-c2ccccn2)cc2ccccc12
28 | 37% | 0% | – | Cc1ccc(C(=O)Nc2nc(-c3ccccn3)cc3ccccc23)cc1
